In PubChem BioAssay (NCI):
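Test compounds were applied to cells in 96-well plates for 48 hours at 5 doses. TGI marks complete inhibition of growth.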

What was measured:
Experiment in all cases: growth of human tumour cells (NCI), 48 h
[1] = test system: OVCAR-8 ovarian
[2] = test system: SR leukemia
[3] = test system: HOP-62 NSCLC
[4] = test system: HS 578T breast
[5] = test system: SK-MEL-28 melanoma
[6] = test system: RPMI-8226 leukemia
[7] = test system: EKVX NSCLC
[8] = test system: MDA-MB-435
[9] = test system: KM12 colon
[10] = test system: CAKI-1 renal
[11] = test system: HOP-92 NSCLC
[12] = test system: K-562 leukemia
[13] = test system: DU-145 prostate
[14] = test system: SK-OV-3 ovarian
[15] = test system: MCF7 breast
[16] = test system: SK-MEL-5 melanoma
[17] = test system: MDA-MB-231 breast
[18] = test system: OVCAR-3 ovarian
[19] = test system: MDA-N
[20] = test system: OVCAR-5 ovarian
[21] = test system: LOX IMVI melanoma
[22] = test system: NCI-H460 lung
[23] = test system: NCI-H23 lung
[24] = test system: UO-31 renal
[25] = test system: COLO 205 colon
[26] = test system: UACC-257 melanoma
[27] = test system: SNB-75 CNS
[28] = test system: UACC-62 melanoma
[29] = test system: HCT-15 colon
[30] = test system: HCC-2998 colon
[31] = test system: OVCAR-4 ovarian
[32] = test system: U251 CNS
[33] = test system: IGROV1 ovarian
[34] = test system: SN12C renal
[35] = test system: SW-620 colon
[36] = test system: RXF 393 renal
[37] = test system: A549 NSCLC
[38] = test system: HT29 colon
[39] = test system: MOLT-4 leukemia
[40] = test system: 786-0 renal
[41] = test system: PC-3 prostate
[42] = test system: M14 melanoma
[43] = test system: T-47D breast
[44] = test system: SF-295 CNS
[45] = test system: A498 renal
[46] = test system: CCRF-CEM leukemia
[47] = test system: BT-549 breast
[48] = test system: SF-268 CNS
[49] = test system: ACHN renal
[50] = test system: HCT-116 colon
[51] = test system: SK-MEL-2 melanoma
[52] = test system: SNB-19 CNS
[53] = test system: TK-10 renal
[54] = test system: NCI-H226 lung
[55] = test system: NCI-H522 lung
[56] = test system: SF-539 CNS
[57] = test system: NCI/ADR-RES ovarian
[58] = test system: MALME-3M melanoma
[59] = test system: HL-60(TB) leukemia

## CCC(C)c1cnc(CC(C)C)c(=O)[nH]1 (centres undefined)
[1]
  TGI: > 100 µM
[2]
  TGI: > 100 µM
[3]
  TGI: > 100 µM
[4]
  TGI: > 100 µM
[5]
  TGI: > 100 µM
[6]
  TGI: > 100 µM
[7]
  TGI: > 100 µM
[8]
  TGI: > 100 µM
[9]
  TGI: > 100 µM
[10]
  TGI: > 100 µM
[11]
  TGI: > 100 µM
[12]
  TGI: > 100 µM
[13]
  TGI: > 100 µM
[14]
  TGI: > 100 µM
[15]
  TGI: > 100 µM
[16]
  TGI: > 100 µM
[17]
  TGI: > 100 µM
[18]
  TGI: > 100 µM
[19]
  TGI: > 100 µM
[20]
  TGI: > 100 µM
[21]
  TGI: > 100 µM
[22]
  TGI: > 100 µM
[23]
  TGI: > 100 µM
[24]
  TGI: > 100 µM
[25]
  TGI: > 100 µM
[26]
  TGI: > 100 µM
[27]
  TGI: > 100 µM
[28]
  TGI: > 100 µM
[29]
  TGI: > 100 µM
[30]
  TGI: > 100 µM
[31]
  TGI: > 100 µM
[32]
  TGI: > 100 µM
[33]
  TGI: > 100 µM
[34]
  TGI: > 100 µM
[35]
  TGI: > 100 µM
[36]
  TGI: > 100 µM
[37]
  TGI: > 100 µM
[38]
  TGI: > 100 µM
[39]
  TGI: > 100 µM
[40]
  TGI: > 100 µM
[41]
  TGI: > 100 µM
[42]
  TGI: > 100 µM
[43]
  TGI: > 100 µM
[44]
  TGI: > 100 µM
[45]
  TGI: > 100 µM
[46]
  TGI: > 100 µM
[47]
  TGI: > 100 µM
[48]
  TGI: > 100 µM
[49]
  TGI: > 100 µM
[50]
  TGI: > 100 µM
[51]
  TGI: > 100 µM
[52]
  TGI: > 100 µM
[53]
  TGI: > 100 µM

## COc1ccc(CCNC(=S)/N=C\C2=C(O)c3ccccc3C2=O)cc1OC
[1]
  TGI: > 100 µM
[2]
  TGI: > 100 µM
[3]
  TGI: > 100 µM
[4]
  TGI: 72.7 µM
[5]
  TGI: > 100 µM
[6]
  TGI: > 100 µM
[7]
  TGI: > 100 µM
[54]
  TGI: > 100 µM
[8]
  TGI: > 100 µM
[9]
  TGI: > 100 µM
[10]
  TGI: > 100 µM
[11]
  TGI: 8.92 µM
[12]
  TGI: > 100 µM
[55]
  TGI: > 100 µM
[13]
  TGI: > 100 µM
[14]
  TGI: > 100 µM
[15]
  TGI: > 100 µM
[16]
  TGI: > 100 µM
[17]
  TGI: > 100 µM
[56]
  TGI: > 100 µM
[18]
  TGI: 0.746 µM
[19]
  TGI: > 100 µM
[20]
  TGI: > 100 µM
[21]
  TGI: > 100 µM
[23]
  TGI: > 100 µM
[24]
  TGI: > 100 µM
[25]
  TGI: > 100 µM
[26]
  TGI: > 100 µM
[27]
  TGI: > 100 µM
[28]
  TGI: > 100 µM
[29]
  TGI: > 100 µM
[30]
  TGI: > 100 µM
[31]
  TGI: > 100 µM
[32]
  TGI: > 100 µM
[33]
  TGI: > 100 µM
[34]
  TGI: > 100 µM
[35]
  TGI: > 100 µM
[36]
  TGI: > 100 µM
[37]
  TGI: > 100 µM
[38]
  TGI: > 100 µM
[57]
  TGI: > 100 µM
[39]
  TGI: > 100 µM
[40]
  TGI: > 100 µM
[41]
  TGI: > 100 µM
[42]
  TGI: > 100 µM
[43]
  TGI: > 100 µM
[44]
  TGI: > 100 µM
[45]
  TGI: > 100 µM
[46]
  TGI: > 100 µM
[48]
  TGI: > 100 µM
[49]
  TGI: > 100 µM
[58]
  TGI: > 100 µM
[50]
  TGI: > 100 µM
[51]
  TGI: > 100 µM
[59]
  TGI: > 100 µM
[52]
  TGI: > 100 µM

## CCOC(=O)/C(=C\NC#N)c1nc2ccccc2[nH]1
[1]
  TGI: > 100 µM
[2]
  TGI: > 100 µM
[3]
  TGI: > 100 µM
[5]
  TGI: > 100 µM
[6]
  TGI: > 100 µM
[7]
  TGI: > 100 µM
[8]
  TGI: > 100 µM
[9]
  TGI: > 100 µM
[10]
  TGI: > 100 µM
[11]
  TGI: > 100 µM
[55]
  TGI: > 100 µM
[13]
  TGI: > 100 µM
[14]
  TGI: > 100 µM
[15]
  TGI: > 100 µM
[16]
  TGI: > 100 µM
[56]
  TGI: > 100 µM
[18]
  TGI: > 100 µM
[19]
  TGI: > 100 µM
[20]
  TGI: > 100 µM
[21]
  TGI: > 100 µM
[22]
  TGI: > 100 µM
[23]
  TGI: > 100 µM
[24]
  TGI: 6.28 µM
[25]
  TGI: > 100 µM
[26]
  TGI: > 100 µM
[27]
  TGI: > 100 µM
[28]
  TGI: > 100 µM
[29]
  TGI: > 100 µM
[30]
  TGI: > 100 µM
[31]
  TGI: > 100 µM
[33]
  TGI: > 100 µM
[34]
  TGI: > 100 µM
[35]
  TGI: > 100 µM
[36]
  TGI: > 100 µM
[37]
  TGI: > 100 µM
[38]
  TGI: > 100 µM
[57]
  TGI: > 100 µM
[39]
  TGI: > 100 µM
[40]
  TGI: > 100 µM
[42]
  TGI: > 100 µM
[44]
  TGI: > 100 µM
[45]
  TGI: > 100 µM
[47]
  TGI: > 100 µM
[48]
  TGI: > 100 µM
[49]
  TGI: > 100 µM
[58]
  TGI: > 100 µM
[50]
  TGI: > 100 µM
[59]
  TGI: > 100 µM
[52]
  TGI: > 100 µM
[53]
  TGI: > 100 µM

## COc1ccc(CCN2CCOCC2)cc1
[2]
  TGI: > 100 µM
[3]
  TGI: > 100 µM
[4]
  TGI: > 100 µM
[5]
  TGI: > 100 µM
[6]
  TGI: > 100 µM
[7]
  TGI: > 100 µM
[54]
  TGI: > 100 µM
[8]
  TGI: > 100 µM
[9]
  TGI: > 100 µM
[10]
  TGI: > 100 µM
[11]
  TGI: > 100 µM
[12]
  TGI: > 100 µM
[55]
  TGI: > 100 µM
[13]
  TGI: > 100 µM
[14]
  TGI: > 100 µM
[15]
  TGI: > 100 µM
[16]
  TGI: > 100 µM
[17]
  TGI: > 100 µM
[56]
  TGI: > 100 µM
[18]
  TGI: > 100 µM
[19]
  TGI: > 100 µM
[20]
  TGI: > 100 µM
[21]
  TGI: > 100 µM
[22]
  TGI: > 100 µM
[23]
  TGI: > 100 µM
[24]
  TGI: > 100 µM
[25]
  TGI: > 100 µM
[26]
  TGI: > 100 µM
[28]
  TGI: > 100 µM
[29]
  TGI: > 100 µM
[30]
  TGI: > 100 µM
[32]
  TGI: > 100 µM
[33]
  TGI: > 100 µM
[34]
  TGI: > 100 µM
[35]
  TGI: > 100 µM
[36]
  TGI: > 100 µM
[37]
  TGI: > 100 µM
[38]
  TGI: > 100 µM
[57]
  TGI: > 100 µM
[39]
  TGI: > 100 µM
[40]
  TGI: > 100 µM
[41]
  TGI: > 100 µM
[42]
  TGI: > 100 µM
[43]
  TGI: > 100 µM
[44]
  TGI: > 100 µM
[45]
  TGI: > 100 µM
[46]
  TGI: > 100 µM
[48]
  TGI: > 100 µM
[49]
  TGI: > 100 µM
[58]
  TGI: > 100 µM
[50]
  TGI: > 100 µM
[51]
  TGI: > 100 µM
[59]
  TGI: > 100 µM
[52]
  TGI: > 100 µM
[53]
  TGI: > 100 µM
